In one experiment the target is human plasma kallikrein (Homo sapiens (Human), UniProt P03952). The experiment is described as follows: Kallikrein inhibition assay (FLINT) utilizing a quenched AMC peptide substrate. It is filed as biochemical. As to conditions: 30 min preincubation, kinetic reads over 30 min, Z-Gly-Pro-Arg-AMC substrate 50 μM; read-out: Kallikrein Kin Inh IC50. The method in brief: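 Fluorogenic Z-Gly-Pro-Arg-AMC cleavage (50 μM substrate, 2 nM kallikrein, Tris pH 7.5, CaCl2, BSA, CHAPS, 2% DMSO) read kinetically at 340/440 nm for 30 min after 30-min compound pre-incubation. Compounds in 11-point 3-fold series from 1 μM; percent inhibition fitted to four-parameter equation for IC50.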

The next experiment addresses Factor XIa (Homo sapiens (Human), UniProt P03951). The experiment is described as follows: Factor XIa inhibition assay (FLINT) utilizing a fluorophore-quencher pair peptide substrate. Type of experiment: biochemical. As to conditions: 30 min preincubation, kinetic reads over 30 min, read-out: FXIa Kin Inh IC50. In outline:
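FXIa ([…]) preincubated 30 min with compound (11-point 3-fold dilution, top 100 nM, 2% DMSO), then 15 μM quenched FXI Arg146-based peptide added; Tris pH 7.5, CaCl2, BSA, CHAPS. Fluorescence 485/520 nm read kinetically every 5 min over 30 min at RT; IC50 by 4-parameter fit.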

Where [1] appears, read: 5Fam-KLTRAETV-K5Tamra substrate 15 μM.
Where [2] appears, read: 5Fam-[…]-K5Tamra substrate 15 μM.

Like-named read-outs stand apart in the source and are kept apart here. Bounds are passed on as bounds.

Usually IC50 stands for the concentration at which inhibition is half-maximal.

human plasma kallikrein, sequence (P03952 391-638): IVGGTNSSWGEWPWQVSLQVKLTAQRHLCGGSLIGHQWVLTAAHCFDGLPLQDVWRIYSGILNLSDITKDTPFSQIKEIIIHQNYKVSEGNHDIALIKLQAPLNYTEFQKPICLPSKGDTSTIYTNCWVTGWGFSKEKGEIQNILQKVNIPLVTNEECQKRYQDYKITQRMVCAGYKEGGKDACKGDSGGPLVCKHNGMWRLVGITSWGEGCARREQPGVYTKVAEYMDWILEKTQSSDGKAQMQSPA
human plasma kallikrein, sequence (P03952 20-390 partner): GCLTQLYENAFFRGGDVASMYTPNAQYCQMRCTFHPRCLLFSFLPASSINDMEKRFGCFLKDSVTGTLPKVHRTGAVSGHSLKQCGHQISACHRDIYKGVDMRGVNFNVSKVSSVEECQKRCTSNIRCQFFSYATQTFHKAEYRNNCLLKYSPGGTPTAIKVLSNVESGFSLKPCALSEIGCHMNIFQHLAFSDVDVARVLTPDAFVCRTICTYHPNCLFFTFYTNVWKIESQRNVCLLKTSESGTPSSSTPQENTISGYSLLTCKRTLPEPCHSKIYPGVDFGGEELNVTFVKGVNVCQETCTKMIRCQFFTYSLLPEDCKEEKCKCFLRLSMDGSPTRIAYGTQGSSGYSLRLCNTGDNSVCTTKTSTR
Factor XIa, sequence (P03951 388-625): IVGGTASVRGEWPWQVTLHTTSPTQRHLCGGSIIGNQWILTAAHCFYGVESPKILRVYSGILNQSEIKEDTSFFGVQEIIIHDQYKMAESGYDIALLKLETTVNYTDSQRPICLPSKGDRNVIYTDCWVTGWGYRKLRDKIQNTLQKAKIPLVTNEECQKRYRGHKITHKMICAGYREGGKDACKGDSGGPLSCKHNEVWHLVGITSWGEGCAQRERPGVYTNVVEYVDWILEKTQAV
Factor XIa, sequence (P03951 19-387 partner): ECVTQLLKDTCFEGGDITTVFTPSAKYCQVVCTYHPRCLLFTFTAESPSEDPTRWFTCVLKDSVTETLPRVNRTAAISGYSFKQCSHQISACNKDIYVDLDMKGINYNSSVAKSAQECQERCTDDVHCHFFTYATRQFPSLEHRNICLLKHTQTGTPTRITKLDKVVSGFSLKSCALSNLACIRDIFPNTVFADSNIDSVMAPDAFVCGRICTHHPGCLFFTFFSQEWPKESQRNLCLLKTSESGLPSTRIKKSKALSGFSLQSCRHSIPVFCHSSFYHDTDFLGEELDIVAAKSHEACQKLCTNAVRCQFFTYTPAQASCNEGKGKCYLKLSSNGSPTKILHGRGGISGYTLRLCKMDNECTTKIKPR

`O=C1C=C(c2c(-n3cnnn3)ccc(Cl)c2F)C[C@H]2CC[C@@H](c3ncc(-c4ccc5[nH]ccc5c4)[nH]3)N12` [Example 14, (3S,8aR)-3-(5-(1H-indol-5-yl)-1H-imidazol-2-yl)-7-(3-chloro-2-fluoro-6-(1H-tetrazol-1-yl)phenyl)-2,3,8,8a-tetrahydroindolizin-5(1H)-one]: the IC50 stood at 6.5 nM at human plasma kallikrein and 3.8 nM at Factor XIa (setting [1]).
Take `Nc1cc(-c2cnc([C@@H]3CC[C@@H]4CC(c5c(-n6cnnn6)ccc(Cl)c5F)=CC(=O)N43)[nH]2)c(Cl)cn1` [Example 15, (3S,8aR)-3-[5-(2-Amino-5-chloro-4-pyridyl)-1H-imidazol-2-yl]-7-[3-chloro-2-fluoro-6-(tetrazol-1-yl)phenyl]-2,3,8,8a-tetrahydro-1H-indolizin-5-one]: the figures for the IC50 on human plasma kallikrein and on Factor XIa (setting [1]) were 27.5 nM and 3.7 nM, respectively.
The like results for `CC(=O)N[C@H](C)c1ccc(-c2cnc([C@@H]3CCC4CC(c5c(-n6cnnn6)ccc(Cl)c5F)=CC(=O)N43)[nH]2)cc1` (stereo partly drawn) [Example 16, N-[(1R)-1-[4-[2-[(3S)-7-[3-Chloro-2-fluoro-6-(tetrazol-1-yl)phenyl]-5-oxo-2,3,8,8a-tetrahydro-1H-indolizin-3-yl]-1H-imidazol-5-yl]phenyl]ethyl]acetamide] were, in that order, 330 nM and 61 nM.
For the molecule `O=C1C=C(c2c(-n3cnnn3)ccc(Cl)c2F)C[C@H]2CC[C@@H](c3ncc(-c4ccncc4F)[nH]3)N12` [Example 17, (3S,8aR)-7-[3-Chloro-2-fluoro-6-(tetrazol-1-yl)phenyl]-3-[5-(3-fluoro-4-pyridyl)-1H-imidazol-2-yl]-2,3,8,8a-tetrahydro-1H-indolizin-5-one], the IC50 on human plasma kallikrein is 29 nM; on Factor XIa (setting [1]), 3 nM.
The like results for `CC(=O)Nc1cc(-c2cnc([C@@H]3CCC4CC(c5c(-n6cnnn6)ccc(Cl)c5F)=CC(=O)N43)[nH]2)c(Cl)cn1` (stereo partly drawn) [Example 18, N-[5-Chloro-4 [2-[(3S)-7-[3-Chloro-2-fluoro-6-(tetrazol-1-yl)phenyl]-5-oxo-2,3,8,8a-tetrahydro-1H-indolizin-3-yl]-1H-imidazol-5-yl]-2-pyridyl]acetamide] were, in that order, 465 nM and 82.1 nM.
`Cc1c(-c2cnc([C@@H]3CCC4CC(c5c(-n6cnnn6)ccc(Cl)c5F)=CC(=O)N43)[nH]2)ccnc1N` (stereo partly drawn) [Example 21, (3S)-3-(5-(2-Amino-3-methylpyridin-4-yl)-1H-imidazol-2-yl)-7-(3-chloro-2-fluoro-6-(1H-tetrazol-1-yl)phenyl)-2,3,8,8a-tetrahydroindolizin-5(1H)-one]: the results for the IC50 on human plasma kallikrein and on Factor XIa (setting [1]) were 65.5 nM and 6.3 nM, respectively.
The like results for `O=C1C=C(c2c(OC(F)F)ccc(Cl)c2F)C[C@H]2CC[C@@H](c3nc(F)c(-c4ccnc(CO)c4F)[nH]3)N12` [Example 23, (3S,8aR)-7-(3-Chloro-6-(difluoromethoxy)-2-fluorophenyl)-3-(4-fluoro-5-(3-fluoro-2-(hydroxymethyl)pyridin-4yl)-1H-imidazol-2-yl)-2,3,8,8a-tetrahydroindolizin-5(1H)-one] were, in that order, 265 nM and 50.1 nM.
The like results for `O=C1C=C(c2c(-n3cnnn3)ccc(Cl)c2F)C[C@H]2CC[C@@H](c3ncc(-c4cnc5[nH]ccc5c4)[nH]3)N12` [Example 24, (3S,8aR)-3-(5-(1H-pyrrolo[2,3-b]pyridin-5-yl)-1H-imidazol-2-yl)-7-(3-chloro-2-fluoro-6-(1H-tetrazol-1-yl)phenyl)-2,3,8,8a-tetrahydroindolizin-5(1H)-one] were, in that order, 92 nM and 74.4 nM.
For `O=C1C=C(c2c(OC(F)F)ccc(Cl)c2F)C[C@H]2CC[C@@H](c3ncc(-c4ccnc(CO)c4F)[nH]3)N12` [Example 25, (3S,8aR)-7-(3-Chloro-6-(difluoromethoxy)-2-fluorophenyl)-3-(5-(3-fluoro-2-(hydroxymethyl)pyridin-4-yl)-1H-imidazol-2-yl)-2,3,8,8a-tetrahydroindolizin-5(1H)-one], the IC50 on human plasma kallikrein was 480 nM; on Factor XIa (setting [1]), above 100 nM.
Regarding `O=C1C=C(c2c(C(F)F)ccc(Cl)c2F)C[C@H]2CC[C@@H](c3ncc(-c4ccnc(CO)c4F)[nH]3)N12` [Example 26, (3S,8aR)-7-(3-Chloro-6-(difluoromethyl)-2-fluorophenyl)-3-(5-(3-fluoro-2-(hydroxymethyl)pyridin-4-yl)-1H-imidazol-2-yl)-2,3,8,8a-tetrahydroindolizin-5(1H)-one], the IC50 at human plasma kallikrein is 270 nM; at Factor XIa (setting [2]) it was above 100 nM.
For the molecule `O=C1C=C(c2c(C(F)F)ccc(Cl)c2F)C[C@H]2CC[C@@H](c3nc(F)c(-c4ccnc(CO)c4F)[nH]3)N12` [Example 27, (3S,8aR)-7-(3-Chloro-6-(difluoromethyl)-2-fluorophenyl)-3-(4-fluoro-5-(3-fluoro-2-(hydroxymethyl)pyridin-4-yl)-1H-imidazol-2-yl)-2,3,8,8a-tetrahydroindolizin-5(1H)-one], the figures for the IC50 on human plasma kallikrein and at Factor XIa (setting [1]) were 118 nM and above 100 nM, respectively.
Regarding `Cc1nc2ccc(-c3cnc([C@@H]4CC[C@@H]5CC(c6c(-n7cnnn7)ccc(Cl)c6F)=CC(=O)N54)[nH]3)cc2[nH]1` [Example 30, (3S,8aR)-7-(3-chloro-2-fluoro-6-(1H-tetrazol-1-yl)phenyl)-3-(5-(2-methyl-1H-benzo[d]imidazol-6-yl)-1H-imidazol-2-yl)-2,3,8,8a-tetrahydroindolizin-5(1H)-one], the IC50 on human plasma kallikrein worked out at 4.4 nM; at Factor XIa (setting [1]), 2.1 nM.
With `O=C1C=C(c2c(-n3cnnn3)ccc(Cl)c2F)C[C@H]2CC[C@@H](c3nc(-c4ccnc5[nH]ccc45)c[nH]3)N12` [Example 32, (3S,8aR)-3-(4-(1H-pyrrolo[2,3-b]pyridin-4-yl)-1H-imidazol-2-yl)-7-(3-chloro-2-fluoro-6-(1H-tetrazol-1-yl)phenyl)-2,3,8,8a-tetrahydroindolizin-5(1H)-one], the IC50 at human plasma kallikrein was determined as 2.9 nM; on Factor XIa (setting [1]), 1.5 nM.
In the case of `[2H]C1([2H])C[C@@H](c2ncc(-c3ccnc(CO)c3F)[nH]2)N2C(=O)C=C(c3c(-n4cnnn4)ccc(Cl)c3F)C([2H])([2H])[C@]21[2H]` [Example 33, (3S,8aR)-7-(3-Chloro-2-fluoro-6-(1H-tetrazol-1-yl)phenyl)-3-(5-(3-fluoro-2-(hydroxymethyl)pyridin-4-yl)-1H-imidazol-2-yl)-2,3,8,8a-tetrahydroindolizin-5(1H)-one-1,1,8,8,8a-d5], the figures for the IC50 on human plasma kallikrein and on Factor XIa (setting [2]) were 33.2 nM and 3.9 nM, respectively.
On to `O=C(O)c1nccc(-c2[nH]c([C@@H]3CC[C@@H]4CC(c5c(-n6cc(C(F)(F)F)nn6)ccc(Cl)c5F)=CC(=O)N43)nc2F)c1F` [Example 34, 4-(2-((3S,8aR)-7-(3-Chloro-2-fluoro-6-(4-(trifluoromethyl)-1H-1,2,3-triazol-1-yl)phenyl)-5-oxo-1,2,3,5,8,8a-hexahydroindolizin-3-yl)-4-fluoro-1H-imidazol-5-yl)-3-fluoropicolinic acid], for which the IC50 came out at 32.8 nM at human plasma kallikrein and 0.6 nM at Factor XIa (setting [1]).
Take `O=C1C=C(c2c(-n3cnnn3)ccc(Cl)c2F)C[C@H]2CC[C@@H](c3nc(-c4ccnc5[nH]ncc45)c[nH]3)N12` [Example 38, (3S,8aR)-3-(4-(1H-pyrazolo[3,4-b]pyridin-4-yl)-1H-imidazol-2-yl)-7-(3-chloro-2-fluoro-6-(1H-tetrazol-1-yl)phenyl)-2,3,8,8a-tetrahydroindolizin-5(1H)-one]: the IC50 at human plasma kallikrein is 2.6 nM; on Factor XIa (setting [1]) it was 2.1 nM.
In the case of `O=C1C=C(c2c(-n3cnnn3)ccc(Cl)c2F)C[C@H]2CC[C@@H](c3nc(-c4ncc(CO)s4)c[nH]3)N12` [Example 39, (3S,8aR)-7-(3-Chloro-2-fluoro-6-(1H-tetrazol-1-yl)phenyl)-3-(4-(5-(hydroxymethyl)thiazol-2-yl)-1H-imidazol-2-yl)-2,3,8,8a-tetrahydroindolizin-5(1H)-one], the IC50 on human plasma kallikrein was 136 nM; at Factor XIa (setting [1]), 95.6 nM.
`COC(=O)Nc1nccc(-c2[nH]c([C@@H]3CC[C@@H]4CC(c5c(-n6cnnn6)ccc(Cl)c5F)=CC(=O)N43)nc2F)c1F` [Example 40, Methyl N-[4-[2-[(3S,8aR)-7-[3-chloro-2-fluoro-6-(tetrazol-1-yl)phenyl]-5-oxo-2,3,8,8a-tetrahydro-1H-indolizin-3-yl]-4-fluoro-1H-imidazol-5-yl]-3-fluoro-2-pyridyl]carbamate]: the IC50 at human plasma kallikrein is 6.4 nM; at Factor XIa (setting [1]) it was 0.8 nM.
Consider `O=C1C=C(c2c(-n3cnnn3)ccc(Cl)c2F)C[C@H]2CC[C@@H](c3nc(-c4cnc5[nH]ncc5c4)c[nH]3)N12` [Example 41, (3S,8aR)-3-(4-(1H-pyrazolo[3,4-b]pyridin-5-yl)-1H-imidazol-2-yl)-7-(3-chloro-2-fluoro-6-(1H-tetrazol-1-yl)phenyl)-2,3,8,8a-tetrahydroindolizin-5(1H)-one], for which the IC50 worked out at 54.2 nM on human plasma kallikrein and 44.7 nM on Factor XIa (setting [1]).
The like results for `O=C1C=C(c2c(-n3cnnn3)ccc(Cl)c2F)C[C@H]2CC[C@@H](c3nc(-c4ccc5[nH]cnc5c4)c[nH]3)N12` [Example 42, (3S,8aR)-3-(4 (1H-benzo[d]imidazol-5-yl)-1H-imidazol-2-yl)-7-(3-chloro-2-fluoro-6-(1H-tetrazol-1-yl)phenyl)-2,3,8,8a-tetrahydroindolizin-5(1H)-one] were, in that order, 4.6 nM and 1 nM.

The values are drawn from patent US20230295157A1, “3-(1H-IMIDAZOL-2-YL)-2,3,8,8A-TETRAHYDROINDOLIZIN-5(1H)-ONE DERIVATIVES USEFUL AS FACTOR XIA INHIBITORS” (JANSSEN PHARMACEUTICA NV, priority 2020, published 2023).
